The results in this text go back to ChEMBL document CHEMBL4673290, “Diazaspirononane Nonsaccharide Inhibitors of O-GlcNAcase (OGA) for the Treatment of Neurodegenerative Disorders” (J Med Chem, 2020).

The assay is described as follows: Selectivity ratio of IC50 for inhibition of clostridium perfringens OGA to IC50 for Inhibition of human recombinant full-length OGA transcript variant 1 expressed in HEK293T cells. In kind it is cell-based.

Take `CC(=O)Nc1ncc(CN2CC3(CCN(c4cc(C)nc5ncnn45)C3)C2)s1`: the Ratio IC50 is 100.

On to `CC(=O)Nc1ncc(CN2CCC3(CCN(c4cc(C)nc5ncnn45)C3)C2)s1` (configuration not stated), for which the Ratio IC50 was 100.
